In patent US11076594B2, “Pyrazolone compound or salt thereof, preparation method therefor, herbicide composition and use thereof” (QINGDAO KINGAGROOT CHEMICAL COMPOUNDS CO., LTD., priority 2015, dated 2021):

Key:
Type in all cases: in vivo
rice = assay: post-emergence stage experiment, crop (Table 1); design: key: Level 10: completely dead; Level 9: above 95% growth control rate; Level 8: above 90% growth control rate; Level 7: above 80% growth control rate; Level 6: above 70% growth control rate; Level 5: above 60% growth control rate; Level 4: above 50% growth control rate; Level 3: above 20% growth control rate; Level 2: 5%-20% growth control rate; Level 1: below 5% growth control rate; conditions: post-emergence spray at 4-5 leaf stage, 250 g/ha active ingredient with 450 kg/ha water, rated after 3 weeks in greenhouse
Method in brief: (§1)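 Weeds and crops grown in soil-filled pots in a greenhouse were sprayed at the 4-5 leaf stage (2-3 weeks after sowing). Compounds were applied in acetone with tween 80, diluted in water. After 3 weeks' culture, growth control was scored as fresh weight control rate.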

foxtail = assay: weed control effect in post-emergence stage (Table 1); design: key: Level 10: completely dead; Level 9: above 95% growth control rate; Level 8: above 90% growth control rate; Level 7: above 80% growth control rate; Level 6: above 70% growth control rate; Level 5: above 60% growth control rate; Level 4: above 50% growth control rate; Level 3: above 20% growth control rate; Level 2: 5%-20% growth control rate; Level 1: below 5% growth control rate; conditions: post-emergence spray at 4-5 leaf stage, 250 g/ha active ingredient with 450 kg/ha water, rated after 3 weeks in greenhouse
Method in brief: as §1

echinochloa = assay: as above; design: key: Level 10: completely dead; Level 9: above 95% growth control rate; Level 8: above 90% growth control rate; Level 7: above 80% growth control rate; Level 6: above 70% growth control rate; Level 5: above 60% growth control rate; Level 4: above 50% growth control rate; Level 3: above 20% growth control rate; Level 2: 5%-20% growth control rate; Level 1: below 5% growth control rate; conditions: post-emergence spray at 4-5 leaf stage, 250 g/ha active ingredient with 450 kg/ha water, rated after 3 weeks in greenhouse
Method in brief: as §1

bidens bipinnata = assay: as above; design: key: Level 10: completely dead; Level 9: above 95% growth control rate; Level 8: above 90% growth control rate; Level 7: above 80% growth control rate; Level 6: above 70% growth control rate; Level 5: above 60% growth control rate; Level 4: above 50% growth control rate; Level 3: above 20% growth control rate; Level 2: 5%-20% growth control rate; Level 1: below 5% growth control rate; conditions: post-emergence spray at 4-5 leaf stage, 250 g/ha active ingredient with 450 kg/ha water, rated after 3 weeks in greenhouse
Method in brief: as §1

rorippa indica = assay: as above; design: key: Level 10: completely dead; Level 9: above 95% growth control rate; Level 8: above 90% growth control rate; Level 7: above 80% growth control rate; Level 6: above 70% growth control rate; Level 5: above 60% growth control rate; Level 4: above 50% growth control rate; Level 3: above 20% growth control rate; Level 2: 5%-20% growth control rate; Level 1: below 5% growth control rate; conditions: post-emergence spray at 4-5 leaf stage, 250 g/ha active ingredient with 450 kg/ha water, rated after 3 weeks in greenhouse
Method in brief: as §1

crab grass = assay: as above; design: key: Level 10: completely dead; Level 9: above 95% growth control rate; Level 8: above 90% growth control rate; Level 7: above 80% growth control rate; Level 6: above 70% growth control rate; Level 5: above 60% growth control rate; Level 4: above 50% growth control rate; Level 3: above 20% growth control rate; Level 2: 5%-20% growth control rate; Level 1: below 5% growth control rate; conditions: post-emergence spray at 4-5 leaf stage, 250 g/ha active ingredient with 450 kg/ha water, rated after 3 weeks in greenhouse
Method in brief: as §1

Indian mallow = assay: as above; design: key: Level 10: completely dead; Level 9: above 95% growth control rate; Level 8: above 90% growth control rate; Level 7: above 80% growth control rate; Level 6: above 70% growth control rate; Level 5: above 60% growth control rate; Level 4: above 50% growth control rate; Level 3: above 20% growth control rate; Level 2: 5%-20% growth control rate; Level 1: below 5% growth control rate; conditions: post-emergence spray at 4-5 leaf stage, 250 g/ha active ingredient with 450 kg/ha water, rated after 3 weeks in greenhouse
Method in brief: as §1

wheat [1] = assay: wheat field test, crop selectivity, greenhouse spray at 4 leaf stage; conditions: sprayed at 4 leaf stage, 4 weeks after treatment
Experimental: (§2) The activity level standard of harmful plant destruction (i.e. growth control rate) is as follows:
(§3) The above described growth control rate is fresh weight control rate.
(§4) The seeds of alopecurus japonicas, flixweed, shepherd's purse, corn gromwell, chickweed, beckmannia syzigachne, and annual ryegrass and wheat seeds were put into a plastic pot loaded with soil, and then covered with 0.5-2 cm soil, the seeds were allowed to grow in good greenhouse environment. The test plants were treated at 4 leaf stage 2-3 weeks after sowing. The test compounds of the present invention were dissolved in acetone respectively, then added with methyl oleate emulsion and diluted by certain amount of water to certain concentration. The solution was sprayed to the plant with a sprayer. Then the plants were cultured for 4 weeks in greenhouse.

alopecurus japonicas = assay: wheat field resistant weed control, greenhouse spray at 4 leaf stage; design: key: Level 10: completely dead; Level 9: above 95% growth control rate; Level 8: above 90% growth control rate; Level 7: above 80% growth control rate; Level 6: above 70% growth control rate; Level 5: above 60% growth control rate; Level 4: above 50% growth control rate; Level 3: above 20% growth control rate; Level 2: 5%-20% growth control rate; Level 1: below 5% growth control rate; conditions: sprayed at 4 leaf stage, 4 weeks after treatment, resistant to ALS and ACCase inhibitor herbicides
Experimental: as §2, §3, §4

wheat [2] = assay: post-emergence stage experiment, crop (Table 1); conditions: post-emergence spray at 4-5 leaf stage, 250 g/ha active ingredient with 450 kg/ha water, rated after 3 weeks in greenhouse
Method in brief: as §1

corn = assay: post-emergence stage experiment, crop (Table 1); conditions: post-emergence spray at 4-5 leaf stage, 250 g/ha active ingredient with 450 kg/ha water, rated after 3 weeks in greenhouse
Method in brief: as §1

| SMILES | effect on crop, Rice (level) (rice) | weed control effect, Green foxtail (level) (foxtail) | weed control effect, Echinochloa (level) (echinochloa) | weed control effect, Bidens bipinnata (level) (bidens bipinnata) | weed control effect, Rorippa indica (level) (rorippa indica) | weed control effect, Crab grass (level) (crab grass) | weed control effect, Indian mallow (level) (Indian mallow) | Wheat (activity level, crop damage) (wheat [1]; 2 g/mu) | Wheat (activity level, crop damage) (wheat [1]; 4 g/mu) | Wheat (activity level, crop damage) (wheat [1]; 8 g/mu) | Wheat (activity level, crop damage) (wheat [1]; 16 g/mu) | Wheat (activity level, crop damage) (wheat [1]; 32 g/mu) | Alopecurus japonicas weed controlling effect (activity level) (alopecurus japonicas; 1 g/mu) | Alopecurus japonicas weed controlling effect (activity level) (alopecurus japonicas; 2 g/mu) | Alopecurus japonicas weed controlling effect (activity level) (alopecurus japonicas; 4 g/mu) | Alopecurus japonicas weed controlling effect (activity level) (alopecurus japonicas; 8 g/mu) | effect on crop, Wheat (level) (wheat [2]) | effect on crop, Corn (level) (corn) |
| --- | --- | --- | --- | --- | --- | --- | --- | --- | --- | --- | --- | --- | --- | --- | --- | --- | --- | --- |
| COC(=O)Oc1c(C(=O)c2ccc(C(F)(F)F)c(N3CCCC3=O)c2Cl)c(C)nn1C [Compound 020] | 8 (Level 8: above 90% growth control rate) | 10 | 10 | 9 (Level 9: above 95% growth control rate) | 9 (Level 9: above 95% growth control rate) | 10 | 10 | 1 (Level 1: below 5% growth control rate) | 3 (Level 3: above 20% growth control rate) | 3 (Level 3: above 20% growth control rate) | 4 (Level 4: above 50% growth control rate) | 4 (Level 4: above 50% growth control rate) | 1 (Level 1: below 5% growth control rate) | 6 (Level 6: above 70% growth control rate) | 6 (Level 6: above 70% growth control rate) | 8 (Level 8: above 90% growth control rate) | 0 | – |
| CCOc1c(C(=O)Oc2c(C(=O)c3ccc(C(F)(F)F)c(N4CCCC4=O)c3Cl)c(C)nn2C)cnn1C [Compound 021] | 5 (Level 5: above 60% growth control rate) | 10 | 6 (Level 6: above 70% growth control rate) | – | – | 7 (Level 7: above 80% growth control rate) | 9 (Level 9: above 95% growth control rate) | 0 | 1 (Level 1: below 5% growth control rate) | 4 (Level 4: above 50% growth control rate) | 4 (Level 4: above 50% growth control rate) | 4 (Level 4: above 50% growth control rate) | 2 (Level 2: 5%-20% growth control rate) | 6 (Level 6: above 70% growth control rate) | 10 | 10 | 3 (Level 3: above 20% growth control rate) | 3 (Level 3: above 20% growth control rate) |
| CCS(=O)(=O)Oc1c(C(=O)c2ccc(C(F)(F)F)c(N3CCCC3=O)c2Cl)c(C)nn1C [Compound 019] | 7 (Level 7: above 80% growth control rate) | 10 | 9 (Level 9: above 95% growth control rate) | 9 (Level 9: above 95% growth control rate) | 9 (Level 9: above 95% growth control rate) | 9 (Level 9: above 95% growth control rate) | 10 | 0 | 0 | 2 (Level 2: 5%-20% growth control rate) | 3 (Level 3: above 20% growth control rate) | 4 (Level 4: above 50% growth control rate) | 1 (Level 1: below 5% growth control rate) | 4 (Level 4: above 50% growth control rate) | 6 (Level 6: above 70% growth control rate) | 6 (Level 6: above 70% growth control rate) | 0 | – |
| CCn1ncc(C(=O)c2ccc(C(F)(F)F)c(-n3cc(C)cn3)c2Cl)c1O [Compound 136] | 10 | 10 | 10 | 10 | 10 | 7 (Level 7: above 80% growth control rate) | 10 | – | – | – | – | – | – | – | – | – | 1 (Level 1: below 5% growth control rate) | 1 (Level 1: below 5% growth control rate) |
| CCc1nn(CC)c(O)c1C(=O)c1ccc(C(F)(F)F)c(-n2cccn2)c1Cl [Compound 132] | 5 (Level 5: above 60% growth control rate) | 10 | 9 (Level 9: above 95% growth control rate) | 5 (Level 5: above 60% growth control rate) | 0 | 3 (Level 3: above 20% growth control rate) | 5 (Level 5: above 60% growth control rate) | – | – | – | – | – | – | – | – | – | 1 (Level 1: below 5% growth control rate) | 0 |
| CCn1nc(C2CC2)c(C(=O)c2ccc(C(F)(F)F)c(-n3cc(C)cn3)c2Cl)c1O [Compound 144] | 8 (Level 8: above 90% growth control rate) | 9 (Level 9: above 95% growth control rate) | 10 | 10 | 2 (Level 2: 5%-20% growth control rate) | 2 (Level 2: 5%-20% growth control rate) | 10 | – | – | – | – | – | – | – | – | – | 0 | 0 |
